Patent publication US8088763B2 (priority 2004, dated 2012)

Columns and labels:
5HT-uptake = target: T1, 5HT-uptake (Rattus norvegicus, UniProt P31652); assay: biochemical; conditions: read-out: 5HT-uptake [10 μM], % inhibition
T1 construct: synaptosomes were freshly isolated from areas of rats' brains

NA-uptake = NA-uptake (Rattus norvegicus, UniProt Q63380); assay: biochemical; conditions: read-out: NA-uptake [10 μM], % inhibition
Chain of NA-uptake (Q63380 1-617): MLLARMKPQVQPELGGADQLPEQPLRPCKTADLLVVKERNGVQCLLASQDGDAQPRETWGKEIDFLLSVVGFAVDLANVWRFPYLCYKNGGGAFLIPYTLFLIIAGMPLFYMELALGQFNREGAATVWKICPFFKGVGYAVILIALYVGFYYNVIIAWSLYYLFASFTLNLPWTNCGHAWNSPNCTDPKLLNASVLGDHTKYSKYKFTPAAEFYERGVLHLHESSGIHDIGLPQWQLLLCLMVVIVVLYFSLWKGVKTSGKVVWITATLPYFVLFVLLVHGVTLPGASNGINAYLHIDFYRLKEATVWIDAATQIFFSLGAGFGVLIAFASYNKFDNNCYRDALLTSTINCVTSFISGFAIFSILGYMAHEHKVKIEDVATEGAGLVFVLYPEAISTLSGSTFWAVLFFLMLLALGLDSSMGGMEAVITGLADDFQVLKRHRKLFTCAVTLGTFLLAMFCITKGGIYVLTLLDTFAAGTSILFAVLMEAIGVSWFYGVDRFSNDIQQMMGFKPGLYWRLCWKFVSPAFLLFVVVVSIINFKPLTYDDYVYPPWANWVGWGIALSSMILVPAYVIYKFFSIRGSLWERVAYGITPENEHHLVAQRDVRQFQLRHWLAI

T1 sequence (P31652 whole entry): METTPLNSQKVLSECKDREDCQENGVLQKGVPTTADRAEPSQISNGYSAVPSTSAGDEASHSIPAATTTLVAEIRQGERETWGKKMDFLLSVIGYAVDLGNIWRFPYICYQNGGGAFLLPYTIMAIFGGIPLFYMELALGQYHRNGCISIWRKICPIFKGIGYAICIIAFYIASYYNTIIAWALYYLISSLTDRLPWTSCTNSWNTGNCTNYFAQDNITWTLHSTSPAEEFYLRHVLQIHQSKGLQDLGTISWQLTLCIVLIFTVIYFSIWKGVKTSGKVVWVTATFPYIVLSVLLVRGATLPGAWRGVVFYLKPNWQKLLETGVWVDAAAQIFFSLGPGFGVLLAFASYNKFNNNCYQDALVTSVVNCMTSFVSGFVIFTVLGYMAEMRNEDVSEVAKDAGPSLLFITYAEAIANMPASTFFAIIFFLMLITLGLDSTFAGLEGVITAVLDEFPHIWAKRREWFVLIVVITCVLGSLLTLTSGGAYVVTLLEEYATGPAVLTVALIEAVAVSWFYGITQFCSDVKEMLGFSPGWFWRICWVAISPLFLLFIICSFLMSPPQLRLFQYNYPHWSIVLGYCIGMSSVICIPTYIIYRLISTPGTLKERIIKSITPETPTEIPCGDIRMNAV

| Compound | inhibition at 10 µM (5HT-uptake) | inhibition at 10 µM (NA-uptake) |
| --- | --- | --- |
| CN(C)C1(Cc2cccc(Cl)c2)CCC(NC(=O)CCC(=O)NCc2cc(Cl)ccc2Cl)CC1 (stereo not drawn) [Example 133, N-[4-(3-chloro-benzyl)-4-dimethylamino-cyclohexyl]-N′-(2,5-dichloro-benzyl)-succinamide] | 93% | 97% |
| Cc1ccc(CC2(N(C)C)CCC(NC(=O)CCC(=O)NC(C)C(=O)OC(C)(C)C)CC2)cc1 (stereo not drawn) [Example 61, 2-{3-[4-dimethylamino-4-(4-methyl-benzyl)-cyclohexylcarbamoyl]-propionylamino}-propanoic acid-tert-butylester] | 92% | 93% |
| CN(C)C1(Cc2ccc(Cl)cc2)CCC(NC(=O)CCC(=O)NC2CCN(Cc3ccc(C(F)(F)F)cc3)C2)CC1 (stereo not drawn) [Example 98, N-[4-(4-chloro-benzyl)-4-dimethylamino-cyclohexyl]-N′-[1-(4-trifluoromethyl-benzyl)-pyrrolidin-3-yl]-succinamide] | 92% | 74% |
| CC(CCc1ccccc1)NC(=O)CCC(=O)NC1CCC(Cc2ccc(Cl)cc2)(N(C)C)CC1 (stereo not drawn) [Example 83, N-[4-(4-chloro-benzyl)-4-dimethylamino-cyclohexyl]-N′-(1-methyl-3-phenyl-propyl)-succinamide] | 93% | 105% |
| CN(C)C1(Cc2ccc(Cl)cc2)CCC(NC(=O)CCC(=O)N2CCN(C(=O)c3cccc(Cl)c3)CC2)CC1 (stereo not drawn) [Example 134, 4-[4-(3-chloro-benzoyl)-piperazin-1-yl]-N-[4-(4-chloro-benzyl)-4-dimethylamino-cyclohexyl]-4-oxo-butyramide] | 92% | 101% |
| CN(C)C1(Cc2cccc(Cl)c2)CCC(NC(=O)CCC(=O)N2CCc3[nH]c4ccc(F)cc4c3C2)CC1 (stereo not drawn) [Example 8, N-[4-(3-chloro-benzyl)-4-dimethylamino-cyclohexyl]-4-(8-fluoro-1,3,4,5-tetrahydro-pyrido[4,3-b]indol-2-yl)-4-oxo-butyramide] | 92% | 85% |
| Cc1ccc(CC2(N(C)C)CCC(NC(=O)CCC(=O)NCC3CCCO3)CC2)cc1 (stereo not drawn) [Example 45, N-[4-dimethylamino-4-(4-methyl-benzyl)-cyclohexyl]-N′-(tetrahydro-furan-2-ylmethyl)-succinamide] | 92% | 77% |
| CN(CCc1c[nH]c2ccccc12)C(=O)CCC(=O)NC1CCC(Cc2ccc(Cl)cc2)(N(C)C)CC1 (stereo not drawn) [Example 57, N-[4-(4-chloro-benzyl)-4-dimethylamino-cyclohexyl]-N′-[2-(1H-indol-3-yl)-ethyl]-N′-methyl-succinamide] | 93% | 100% |
| Cc1cccc(CC2(N(C)C)CCC(NC(=O)CCC(=O)N(C)CCc3c[nH]c4ccccc34)CC2)c1 (stereo not drawn) [Example 111, N-[4-dimethylamino-4-(3-methyl-benzyl)-cyclohexyl]-N′-[2-(1H-indol-3-yl)-ethyl]-N′-methyl-succinamide] | 96% | 97% |
| Cc1ccc(CCNC(=O)CCC(=O)NC2CCC(Cc3ccc(C)cc3)(N(C)C)CC2)cc1 (stereo not drawn) [Example 168, N-[4-dimethylamino-4-(4-methyl-benzyl)-cyclohexyl]-N′-(2-p-tolyl-ethyl)-succinamide] | 92% | 96% |
| CC1CCN(C(=O)CCC(=O)NC2CCC(Cc3ccc(Cl)cc3)(N(C)C)CC2)CC1 (stereo not drawn) [Example 60, N-[4-(4-chloro-benzyl)-4-dimethylamino-cyclohexyl]-4-(4-methyl-piperidin-1-yl)-4-oxobutyramide] | 93% | 71% |
| CCC(NC(=O)CCC(=O)NC1CCC(Cc2ccc(Cl)cc2)(N(C)C)CC1)c1ccccc1 (stereo not drawn) [Example 135, N-[4-(4-chloro-benzyl)-4-dimethylamino-cyclohexyl]-N′-(1-phenyl-propyl)-succinamide] | 92% | 96% |
